Results taken from US20200087258A1, “INHIBITOR OF CITRATE TRANSPORTER AND THEIR USE IN THERAPY” (Eternygen GmbH, priority 2017, published 2020).

Tests used:
INDY [1] = target: T1, INDY (Homo sapiens, UniProt Q86YT5); assay: 14C-citrate uptake in HepG2 cells endogenously expressing INDY (NaCT); format: cell-based; conditions: endogenous INDY
Protocol: (§1) The compound was obtained by screening of a library containing more than 50,000 lead-like compounds and fragments. The library was tested using a functional citrate uptake assay with HEK293 cells overexpressing recombinant human INDY. The following hit confirmation was conducted in the same assay system. To confirm the activity of selected compounds on the target INDY another cell assay was conducted. In this assay system citrate uptake was measured using HepG2 cells which endogenously express INDY. Furthermore selectivity of selected compounds was tested for two other transporters in different assay systems. The first transporter was the glutamate transporter GLT-1 tested in a glutamate uptake assays using HEK293 cells overexpressing recombinant human GLT-1. The second transporter was the glucose transporter GLUT1 tested in a glucose uptake assay using Huh-7 cells which endogenously express GLUT1. Compounds were considered to be selective with an at least 5-fold higher activity for INDY than for the other two transporters.
(§2) Cells were maintained in cell medium using cell culture grade flasks (CellSTACK Corning, 500 cm2 dishes or T175 depending on cell number). The selection antibiotic and G418 (800 μg/ml) was added during cultivation but not for seeding into assay plates. For splitting, cells were washed with PBS (w/o Ca2+, Mg2+, phenol red) and detached with Trypsin/EDTA. Throughout cultivation cells were kept sub-confluent. Detached cells (50,000 cells/well) were seeded in 96-well plates (white, clear bottom from Corning #655098) and incubated over night before usage in the assay. The following media were used. For HEK293 cells expressing INDY MEM (PAA)+10% FCS+1×P/S+2 mM L-Gln; for HEK293 cells expressing GLT-1 DMEM (Gibco)+10% FCS+400 µg/ml G418; for Huh7 cells DMEM (Gibco)+10% FCS+2 mM L-Gin (+1×P/S); for HepG2 cells MEM (PAA, Cat # E15-024)+10% FCS+2 mM L-Gin+1×NEAA+1 mM Na-Pyruvat
(§3) The following assay buffers for the particular uptake reaction were used. Citrate uptake buffer: 120 mM NaCl, 5.4 mM KCl, 0.8 mM MgSO4, 5 mM glucose, 1.8 mM CaCl2, 25 mM Hepes, 25 mM MES, pH 6.5. Glutamate uptake buffer: HBSS, 1 mM CaCl2, 1 mM MgCl2, 20 mM Hepes pH 7.4. Glucose uptake buffer: 25 mM Hepes+25 mM MES pH 7.4, 120 mM NaCl, 5.4 mM KCl, 1.8 mM CaCl2, 0.8 mM MgSO4.
INDY mediated citrate uptake was also determined in HepG2 cells. To determine the uptake of ^14C labelled citrate into cells, HepG2 cells endogenously expressing human NaCT were used. (Gopal et al. 2007 Am J Physiol Gastrointest Liver Physiol 292).
HepG2 cells were seeded into white clear-bottom 96-well plates (50,000/well) coated with collagen and incubated at 37° C. for 16-24 hours. After that plates were washed once with assay buffer using automated washing/LS 405 Selectors, BioTek ending with a buffer volume of 40 μl. Then 5 μl of compound solution in assay buffer was added and incubated for 5 min at 37° C. in cell incubator, HERA cell Heraeus. Afterwards 10 μl of substrate 14C-citrate (10 nM) were added and incubated for another 90 min at 37° C. in cell incubator, HERAcell. Then plates were washed 3× with 200 μl buffer and […] cell lysis induced by adding 50 μl ice-cold NaOH (100 mM). Plates were incubated for 25 min at RT on a plate shaker and afterwards 200 μl scintillation fluid was added and incubated for 15 min on a plate shaker at RT and for another 15 min without shaking at RT. Plates were measured using a TopCount system. As a positive control 5 mM citrate was applied. It is possible to use this assay also in analogy in a 384-well plate format.

INDY [2] = target: T1, INDY; assay: 14C-citrate uptake in HEK293 cells overexpressing recombinant human INDY (NaCT); format: cell-based; parameters: expressed in transfected cells; host or cells: HEK293
Protocol: as §1, §2, §3
INDY mediated citrate uptake was determined in HEK293 cells. To determine the uptake of ^14C labelled citrate into cells, HEK293 cells over-expressing human NaCT were used. Cloning of human NaCT was done in analogy as described in Birkenfeld et al. (Birkenfeld et al., 2011, Cell Metabolism 14, 184-195, 2011).
Human NaCT HEK293 cells were seeded into white clear-bottom 96-well plates (50,000/well) in the presence of 4 μg/ml Poly-D-Lysine and incubated at 37° C. for 16-24 hours. On the days of the assay the plates were washed once with assay buffer using automated washing/LS 405 Selectors, BioTek ending with a buffer volume of 40 μl. Then 5 μl of compound solution in assay buffer was added and incubated for 5-30 min at 37° C. in cell incubator, HERA cell Heraeus. Afterwards 10 μl of substrate 14C-citrate ([…]/[…] per well) were added and incubated for another 20-90 min at 37° C. in cell incubator, HERAcell. Then plates were washed twice with 200 μl ice-cold assay buffer and residual volume was discarded. For cell lysis 50 μl ice-cold NaOH (100 mM) was added and incubated for 15 minutes at RT on a plate shaker. Finally, 200 μl scintillation fluid (scintillator OptiPhase Supermix, Perkin Elmer) was added. After 15 min incubation at RT without shaking, plates were measured using a TopCount reader system (Perkin Elmer). As a positive control 10 mM citrate was applied. It is possible to use this assay also in analogy in a 384-well plate format.

T1 sequence (Q86YT5 whole entry, the tested form may be a part): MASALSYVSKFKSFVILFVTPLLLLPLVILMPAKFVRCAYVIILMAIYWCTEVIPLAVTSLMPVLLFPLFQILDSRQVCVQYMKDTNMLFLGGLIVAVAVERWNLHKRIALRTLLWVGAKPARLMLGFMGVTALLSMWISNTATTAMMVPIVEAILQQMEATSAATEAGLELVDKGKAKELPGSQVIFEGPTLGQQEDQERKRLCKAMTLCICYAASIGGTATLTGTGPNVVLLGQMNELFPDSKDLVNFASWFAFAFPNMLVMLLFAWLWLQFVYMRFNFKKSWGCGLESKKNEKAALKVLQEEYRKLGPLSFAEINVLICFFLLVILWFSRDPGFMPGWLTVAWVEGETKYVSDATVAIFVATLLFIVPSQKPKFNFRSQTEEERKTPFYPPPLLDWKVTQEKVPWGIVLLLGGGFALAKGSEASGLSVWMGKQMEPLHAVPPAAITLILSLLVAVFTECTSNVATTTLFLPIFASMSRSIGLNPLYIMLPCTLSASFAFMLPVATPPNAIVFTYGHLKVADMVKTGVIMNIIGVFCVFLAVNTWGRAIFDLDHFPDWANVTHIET

Compound | IC50 (INDY [1]) | IC50 (INDY [2])
O=C(NCc1ccccn1)C1CCN(S(=O)(=O)c2cc(Br)cc(C(F)(F)F)c2)CC1 [Example 126, 1-[3-bromo-5-(trifluoromethyl)benzenesulfonyl]-N-[(pyridin-2-yl)methyl]piperidine-4-carboxamide] | 0.4 µM | 0.5 µM
O=C(NCc1ccccn1)C1CCN(S(=O)(=O)c2cc(Cl)cc(C(F)(F)F)c2)CC1 [Example 130, 1-[3-chloro-5-(trifluoromethyl)benzenesulfonyl]-N-[(pyridin-2-yl)methyl]piperidine-4-carboxamide] | 0.5 µM | 0.7 µM
O=C(NCc1ccccn1)C1CCN(S(=O)(=O)c2ccc(C3CCCC3)cc2)CC1 [Example 129, 1-(4-cyclopentylbenzenesulfonyl)-N-[(pyridin-2-yl)methyl]piperidine-4-carboxamide] | 7.4 µM | 1.6 µM
O=C(NCc1ccccn1)C1CCN(S(=O)(=O)c2ccc(C3CC3)cc2)CC1 [Example 97, 1-(4-cyclopropylbenzenesulfonyl)-N-[(pyridin-2-yl)methyl]piperidine-4-carboxamide] | 3.8 µM | 9.2 µM
O=C(NCc1ccccn1)C1CCN(S(=O)(=O)c2ccc(C3(C(F)(F)F)CC3)cc2)CC1 [Example 125, N-[(pyridin-2-yl)methyl]-1-{4-[1-(trifluoromethyl)cyclopropyl]benzenesulfonyl}piperidine-4-carboxamide] | 0.5 µM | 0.8 µM
O=C(NCc1ccccn1)C1CCN(S(=O)(=O)c2cc(F)cc(Cl)c2)CC1 [Example 78, 1-(3-chloro-5-fluorobenzenesulfonyl)-N-[(pyridin-2-yl)methyl]pipendine-4-carboxamide] | 2.4 µM | 4.9 µM
O=C(NCc1cccc(O)c1)C1CCN(S(=O)(=O)c2cc(Cl)cc(Cl)c2)CC1 [Example 114, 1-(3,5-dichlorobenzenesulfonyl)-N-[(3-hydroxyphenyl)methyl]piperidine-4-carboxamide] | 0.6 µM | 0.7 µM
O=C(NCc1ccccn1)C1CN(S(=O)(=O)c2cc(Cl)cc(Cl)c2)C1 [Example 120, 1-(3,5-dichlorobenzenesulfonyl)-N-[(pyridin-2-yl)methyl]azetidine-3-carboxamide] | 2.8 µM | 7.5 µM
O=C(NCc1ccccn1)C1CCN(S(=O)(=O)c2cc(F)cc(C(F)(F)F)c2)CC1 [Example 84, 1-[3-fluoro-5-(trifluoromethyl)benzenesulfonyl]-N-[(pyridin-2-yl)methyl]pipendine-4-carboxamide] | 2.2 µM | 4.3 µM
O=C(NCc1ccccn1)C1CCN(S(=O)(=O)c2ccc(C3CCCCC3)cc2)CC1 [Example 131, 1-(4-cyclohexylbenzenesulfonyl)-N-[(pyridin-2-yl)methyl]piperidine-4-carboxamide] | 4.7 µM | 6.1 µM
CC(C)Oc1ccc(S(=O)(=O)N2CCC(C(=O)NCc3ccccc3F)CC2)cc1 [Example 24, N-[(2-fluorophenyl)methyl]-1-[4-(propan-2-yloxy)benzenesulfonyl]piperidine-4-carboxamide] | 4.2 µM | 9.3 µM
O=C(NCc1ccccc1F)C1CCN(S(=O)(=O)c2ccc3c(c2)OCO3)CC1 [Example 26, 1-(2H-1,3-benzodioxole-5-sulfonyl)-N-[(2-fluorophenyl)methyl]piperidine-4-carboxamide] | 15.9 µM | 5.2 µM
O=C(NCc1ccccn1)C1CCN(S(=O)(=O)c2ccc(I)cc2)CC1 [Example 95, 1-(4-iodobenzenesulfonyl)-N-[(pyridin-2-yl)methyl]piperidine-4-carboxamide] | 2.4 µM | 5.5 µM
Nc1ccc(CNC(=O)C2CCN(S(=O)(=O)c3cc(Cl)cc(Cl)c3)CC2)cc1 [Example 124, N-[(4-aminophenyl)methyl]-1-(3,5-dichlorobenzenesulfonyl)piperidine-4-carboxamide] | 0.9 µM | 1.8 µM
O=C(NCc1ccc(F)cc1)C1CCN(S(=O)(=O)c2cc(Cl)cc(Cl)c2)CC1 [Example 132, 1-(3,5-dichlorobenzenesulfonyl)-N-[(4-fluorophenyl)methyl]piperidine-4-carboxamide] | 0.7 µM | 2 µM
O=C(NCc1ccccc1F)C1CCN(S(=O)(=O)c2ccc(Cl)c(Cl)c2)CC1 [Example 28, 1-(3,4-dichlorobenzenesulfonyl)-N-[(2-fluorophenyl)methyl]piperidine-4-carboxamide] | 15.7 µM | > 20 µM
O=C(NCc1ccccc1F)C1CCN(S(=O)(=O)c2ccc(I)cc2)CC1 [Example 36, N-[(2-fluorophenyl)methyl]-1-(4-iodobenzenesulfonyl)piperidine-4-carboxamide] | 1 µM | 1 µM
O=C(NCc1ccccc1F)C1CCN(S(=O)(=O)c2cccc(Cl)c2)CC1 [Example 59, 1-(3-chlorobenzenesulfonyl)-N-[(2-fluorophenyl)methyl]piperidine-4-carboxamide] | 0.9 µM | 1.1 µM
O=C(NCc1ccccc1F)C1CCN(S(=O)(=O)c2ccc(Cl)cc2Cl)CC1 [Example 43, 1-(2,4-dichlorobenzenesulfonyl)-N-[(2-fluorophenyl)methyl]piperidine-4-carboxamide] | 0.4 µM | 0.3 µM
O=C(NCc1ccccn1)C1CCN(S(=O)(=O)c2ccc(Cl)c(Cl)c2)CC1 [Example 67, 1-(3,4-dichlorobenzenesulfonyl)-N-[(pyridin-2-yl)methyl]piperidine-4-carboxamide] | 7.2 µM | 18.3 µM
COc1cccc(S(=O)(=O)N2CCC(C(=O)NCc3ccccc3F)CC2)c1 [Example 16, N-[(2-fluorophenyl)methyl]-1-(3-methoxybenzenesulfonyl)piperidine-4-carboxamide] | 1.5 µM | 1.4 µM
O=C(NCc1ccccc1F)C1CCN(S(=O)(=O)c2ccc3c(c2)OC(F)(F)O3)CC1 [Example 47, 1-[(2,2-difluoro-2H-1,3-benzodioxol-5-yl)sulfonyl]-N-[(2-fluorophenyl)methyl]piperidine-4-carboxamide] | 0.7 µM | 0.7 µM
CN(Cc1ccccc1F)C(=O)C1CCN(S(=O)(=O)/C=C/c2ccccc2)CC1 [Example 8, N-[(2-fluorophenyl)methyl]-N-methyl-1-[(E)-2-phenylethenesulfonyl]piperidine-4-carboxamide] | > 50 µM | 
